{"source": "patent US20070099856A1", "about": "“Combined treatment with docetaxel and an epidermal growth factor receptor kinase inhibitor using an intermittent dosing regimen” (priority 2005, published 2007)", "key": {"[1]": {"test_system": "patients with advanced solid tumors", "assay": "Phase I dose escalation Arm A: DOC every 21 days plus weekly erlotinib days 2, 9, 16", "assay_type": "in vivo, human", "text": "(§1) One explanation is antagonism due to TKI-induced G1 arrest, reducing cell cycle phase-dependent activity of chemotherapy (see FIG. 1). We hypothesized that pharmacodynamic separation by intermittent delivery of HER1/EGFR TKI with chemotherapy might increase efficacy.\n(§2) Erlotinib (TARCEVA™) was obtained from OSI Pharmaceuticals, Inc. Melville, N.Y.). Docetaxel (TAXOTERE®) is manufactured and sold by Aventis Pharmaceuticals Inc."}, "[2]": {"test_system": "patients with advanced solid tumors", "assay": "Phase I dose escalation Arm B: DOC every 21 days plus erlotinib days 2-16", "assay_type": "in vivo, human", "text": "as §1, §2"}, "[3]": {"test_system": "advanced, treatment-refractory NSCLC", "conditions": "monotherapy, phase III; cited from earlier work"}, "NSCLC": {"test_system": "NSCLC", "conditions": "first-line, in combination with standard chemotherapy, NSCLC phase III; cited from earlier work"}}, "data": [{"smiles": "CC(=O)O[C@@]12CO[C@@H]1C[C@H](O)[C@@]1(C)C(=O)[C@H](O)C3=C(C)[C@@H](OC(=O)[C@H](O)[C@@H](NC(=O)OC(C)(C)C)c4ccccc4)C[C@@](O)([C@@H](OC(=O)c4ccccc4)[C@H]21)C3(C)C", "note": "[DOC, docetaxel]", "values": [{"measurement": "Arm A MTD, DOC", "setting": "[1]; IV every 21 days, combined with weekly erlotinib 600 mg", "result": 70, "unit": "mg/m^2"}, {"measurement": "Arm B MTD, DOC", "setting": "[2]; IV every 21 days, combined with erlotinib 200 mg day 2-16", "result": 70, "unit": "mg/m^2"}]}, {"smiles": "C#Cc1cccc(Nc2ncnc3cc(OCCOC)c(OCCOC)cc23)c1", "note": "[erlotinib, [6,7-bis(2-methoxyethoxy)-4-quinazolin-4-yl]-(3-ethynylphenyl)amine]", "values": [{"measurement": "Arm A MTD, erlotinib", "setting": "[1]; weekly (days 2, 9, 16), combined with DOC 70 mg/m^2", "result": 600, "unit": "mg"}, {"measurement": "Arm B MTD, erlotinib", "setting": "[2]; day 2-16, combined with DOC 70 mg/m^2", "result": 200, "unit": "mg"}, {"measurement": "Survival", "setting": "[3]", "result": "significantly prolonged survival"}, {"measurement": "Survival", "setting": "NSCLC", "result": "did not improve survival"}]}, {"smiles": "COc1cc2ncnc(Nc3ccc(F)c(Cl)c3)c2cc1OCCCN1CCOCC1", "note": "[gefitinib]", "values": [{"measurement": "Survival", "setting": "NSCLC", "result": "did not improve survival"}]}]}
